From ChEMBL document CHEMBL1201862, “PubChem BioAssay data set” (2004)
Values belong to the compound of their own block, whether it stands above or below them. The source made the active and inactive calls.

Tests used:
[1] = target: T1, Microphthalmia-associated transcription factor (Homo sapiens, UniProt O75030); experiment: TRPM1 promoter luciferase signal decrease, dose response, MITF inhibitor project, cell-based, SK-MEL-5, cherry-picked, set 3 (AID 493073); type: functional
T1 sequence (O75030 whole entry): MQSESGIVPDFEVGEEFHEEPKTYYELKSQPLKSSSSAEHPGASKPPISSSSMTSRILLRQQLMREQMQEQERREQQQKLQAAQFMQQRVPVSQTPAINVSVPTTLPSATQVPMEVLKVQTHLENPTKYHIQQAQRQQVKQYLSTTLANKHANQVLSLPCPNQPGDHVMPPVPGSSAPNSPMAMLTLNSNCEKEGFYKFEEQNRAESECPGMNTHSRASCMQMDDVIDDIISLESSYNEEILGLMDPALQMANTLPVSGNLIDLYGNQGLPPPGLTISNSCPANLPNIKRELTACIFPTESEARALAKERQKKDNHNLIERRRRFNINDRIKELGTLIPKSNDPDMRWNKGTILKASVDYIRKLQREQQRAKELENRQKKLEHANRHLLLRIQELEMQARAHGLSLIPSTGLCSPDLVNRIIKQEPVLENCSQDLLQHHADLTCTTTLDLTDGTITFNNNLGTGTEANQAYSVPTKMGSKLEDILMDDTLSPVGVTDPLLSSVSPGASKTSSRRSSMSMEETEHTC

[2] = target: T2, High affinity choline transporter 1 (Homo sapiens, UniProt Q9GZV3); experiment: CHT inhibitors, dose response, cell-based, 5-point CRC, membrane potential dye (AID 504840); type: functional
T2 sequence (Q9GZV3 whole entry): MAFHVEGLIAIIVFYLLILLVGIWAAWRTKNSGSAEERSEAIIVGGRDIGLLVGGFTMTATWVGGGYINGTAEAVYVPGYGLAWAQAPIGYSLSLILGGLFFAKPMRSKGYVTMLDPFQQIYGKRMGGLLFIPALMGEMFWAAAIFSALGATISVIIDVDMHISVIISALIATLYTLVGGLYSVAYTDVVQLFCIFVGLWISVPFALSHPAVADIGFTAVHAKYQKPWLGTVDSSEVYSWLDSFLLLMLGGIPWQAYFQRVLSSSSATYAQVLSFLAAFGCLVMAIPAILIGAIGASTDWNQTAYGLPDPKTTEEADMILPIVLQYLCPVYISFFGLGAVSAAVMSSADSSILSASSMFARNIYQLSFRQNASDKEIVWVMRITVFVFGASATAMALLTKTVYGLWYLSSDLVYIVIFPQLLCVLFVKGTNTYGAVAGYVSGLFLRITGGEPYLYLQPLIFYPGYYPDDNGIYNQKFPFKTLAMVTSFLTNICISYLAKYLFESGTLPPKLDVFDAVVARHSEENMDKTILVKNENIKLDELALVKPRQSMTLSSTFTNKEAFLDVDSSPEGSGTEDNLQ

[3] = target: T2, High affinity choline transporter 1; experiment: CHT inhibitors, dose response, cell-based, 10-point CRC, membrane potential dye (AID 588401); type: functional;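 further: membrane potential dye fluorescence of choline-evoked depolarization via CHT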
[4] = cytotoxicity toward NIH3T3 fibroblasts, dose response, counter-screen, cell-based, ATP luminescence, mouse fibroblasts (AID 2010); type: functional;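 further: cells exposed to compound for about 90 hours before reading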
[5] = inhibitors of intracellular T. cruzi replication, confirmation, NIH3T3 host cells, beta-gal luminescence (AID 2044); type: functional, cell-based;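 further: intracellular parasites grown in NIH/3T3 mouse fibroblasts as host cells; luminescent beta-galactosidase reporter signal from transgenic T. cruzi replicating inside host cells; inhibitors lower the luminescence signal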
[6] = target: T3, Short transient receptor potential channel 4 (Mus musculus, UniProt Q9QUQ5); experiment: mouse TRPC4 channel activators, dose response, cell-based, HEK293 TRPC4/mu-opioid, Fluo-4 calcium (AID 434937); type: functional
T3 sequence (Q9QUQ5 whole entry): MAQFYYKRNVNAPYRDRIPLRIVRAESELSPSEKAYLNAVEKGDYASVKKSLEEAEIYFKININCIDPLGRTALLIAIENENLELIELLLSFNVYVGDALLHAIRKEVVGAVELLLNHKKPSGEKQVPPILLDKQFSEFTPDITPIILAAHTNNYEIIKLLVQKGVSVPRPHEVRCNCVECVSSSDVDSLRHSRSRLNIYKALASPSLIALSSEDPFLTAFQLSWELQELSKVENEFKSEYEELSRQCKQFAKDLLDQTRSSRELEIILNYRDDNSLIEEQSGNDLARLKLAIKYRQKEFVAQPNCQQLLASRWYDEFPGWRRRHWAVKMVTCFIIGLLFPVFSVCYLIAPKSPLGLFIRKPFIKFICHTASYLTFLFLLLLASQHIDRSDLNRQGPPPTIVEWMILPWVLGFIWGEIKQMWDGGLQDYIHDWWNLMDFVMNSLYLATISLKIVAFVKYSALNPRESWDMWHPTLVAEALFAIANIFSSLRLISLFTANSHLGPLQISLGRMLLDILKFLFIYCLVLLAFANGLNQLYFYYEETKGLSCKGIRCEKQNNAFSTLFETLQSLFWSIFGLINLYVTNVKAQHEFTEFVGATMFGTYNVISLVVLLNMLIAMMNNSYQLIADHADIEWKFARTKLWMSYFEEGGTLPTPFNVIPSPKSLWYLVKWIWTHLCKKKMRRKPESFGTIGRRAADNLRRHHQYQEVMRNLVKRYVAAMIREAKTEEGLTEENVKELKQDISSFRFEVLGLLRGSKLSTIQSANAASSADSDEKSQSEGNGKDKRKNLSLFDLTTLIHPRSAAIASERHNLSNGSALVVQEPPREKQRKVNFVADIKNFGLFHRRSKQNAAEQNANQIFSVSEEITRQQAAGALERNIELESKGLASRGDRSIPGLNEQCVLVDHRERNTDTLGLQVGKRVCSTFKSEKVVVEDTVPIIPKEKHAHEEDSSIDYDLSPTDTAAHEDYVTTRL

[7] = C. albicans growth with fluconazole, confirmation, fluorescence, retest (AID 2467); type: functional, cell-based
[8] = tested on: Streptococcus sp. 'group A'; experiment: growth inhibition of control SK(-) GAS strain, dose response, counter-screen for streptokinase expression inhibitor project, luminescence, kanamycin, BacTiterGlo, confirmation (AID 1900); type: functional, organism-based
[9] = NIH-3T3 fibroblast cytotoxicity, dose response, cytotoxicity control, cell-based, fluorescence, Alamar Blue, secondary assay (AID 2327); type: functional;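 further: NIH-3T3 mouse fibroblasts cultured with fluconazole at 8 µg/mL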
[10] = Luminescence Cell-Based Dose Confirmation HTS to Identify Inhibitors of Platelet Dense Granule Release. [Related pubchem assays: 1663 (Primary HTS), 1678 (Summary of Project)]; type: functional
Streptococcus = experiment: Group A Streptococcus viability loss, dose response, counter-screen for streptokinase expression inhibitor project, luminescence, BacTiterGlo (AID 1915); type: functional, organism-based;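 further: potency for reduction of bacterial viability or growth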
[11] = target: Luciferin 4-monooxygenase (Photinus pyralis, UniProt P08659); experiment: firefly luciferase enzyme inhibitors, dose response, biochemical, luminescence (AID 1891)
[12] = target: Heat shock protein HSP 90-alpha (Homo sapiens, UniProt P07900); type: functional, organism-based
INS1 = experiment: beta cell apoptosis inhibitors, cytokine rescue, dose response, luminescence, retest (AID 449756); type: functional, cell-based; settings: Rattus norvegicus;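 further: cell death triggered by IL-1 beta plus TNF-alpha plus IFN-gamma mixture; protective hits raise ATP signal compared with cytokine alone wells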
HEK293 = experiment: inhibitors of LMP1-driven NF-kB reporter, dose response, cell-based, HEK293, luciferase, cherry-pick (AID 588343); type: functional; settings: Homo sapiens
[13] = target: T3, Short transient receptor potential channel 4; experiment: mouse TRPC4 channel inhibitors, dose response, cell-based, HEK293 TRPC4/mu-opioid, Fluo-4 calcium (AID 434942); type: functional;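 further: potency of inhibitors blocking the TRPC4 calcium response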
[14] = target: T4, Heat shock factor protein 1 (Mus musculus, UniProt P38532); experiment: inhibition of MG132-induced HSE-luciferase signal, confirmation, cell-based, NIH3T3, luminescence, dose retest (AID 2382); type: functional;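 further: NIH3T3 fibroblasts with HSF1-driven luciferase reporter stressed by proteasome inhibitor MG132; luminescence from HSF1-driven luciferase expression after 8 hours of MG132 stress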
T4 sequence (P38532 whole entry): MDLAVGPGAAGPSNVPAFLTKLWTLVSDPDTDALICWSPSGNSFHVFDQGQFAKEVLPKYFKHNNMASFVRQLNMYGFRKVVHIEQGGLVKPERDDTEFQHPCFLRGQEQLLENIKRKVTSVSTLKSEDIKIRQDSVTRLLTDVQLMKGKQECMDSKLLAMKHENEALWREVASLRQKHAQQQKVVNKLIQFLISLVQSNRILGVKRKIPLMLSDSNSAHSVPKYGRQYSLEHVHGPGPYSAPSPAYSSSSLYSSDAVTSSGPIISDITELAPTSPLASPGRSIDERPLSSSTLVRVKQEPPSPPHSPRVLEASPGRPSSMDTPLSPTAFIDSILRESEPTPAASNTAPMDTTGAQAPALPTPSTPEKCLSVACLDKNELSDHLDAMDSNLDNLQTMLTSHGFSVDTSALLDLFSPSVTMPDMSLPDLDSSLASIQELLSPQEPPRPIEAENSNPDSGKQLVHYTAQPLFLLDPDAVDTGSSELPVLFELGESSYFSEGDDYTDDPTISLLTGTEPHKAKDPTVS

[15] = target: T5, Voltage-gated N-type calcium channel alpha-1B subunit/Amyloid beta A4 precursor protein-binding family A member 1 (Homo sapiens, UniProt Q00975+Q02410); type: protein assay
[16] = Luminescence-based cell-based high throughput dose response assay to identify activators of the DAF-12 from the parasite S. stercoralis (ssDAF-12).; type: functional
[17] = target: T6, Calpain-2 catalytic subunit (Sus scrofa, UniProt P43367); experiment: pig calpain II inhibitor potency, dose response, biochemical, fluorogenic peptide substrate (AID 1420); type: functional
T6 sequence (P43367 whole entry): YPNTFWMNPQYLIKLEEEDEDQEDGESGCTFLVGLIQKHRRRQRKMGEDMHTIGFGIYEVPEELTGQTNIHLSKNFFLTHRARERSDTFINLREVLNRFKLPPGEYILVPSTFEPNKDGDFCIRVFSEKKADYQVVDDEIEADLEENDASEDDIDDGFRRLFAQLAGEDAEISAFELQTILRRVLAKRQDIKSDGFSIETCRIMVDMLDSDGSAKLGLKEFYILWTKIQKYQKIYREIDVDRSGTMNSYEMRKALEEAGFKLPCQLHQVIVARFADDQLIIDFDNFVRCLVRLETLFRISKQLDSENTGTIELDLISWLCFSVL

[18] = target: T5, Voltage-gated N-type calcium channel alpha-1B subunit/Amyloid beta A4 precursor protein-binding family A member 1; type: protein assay; remark: listed apart in the source
[19] = growth suppression of beta-catenin-knockout colon cells, dose response, cell-based, HCT116, human colon tumor (AID 1045); type: functional;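 further: HCT116 colon tumor cells with beta catenin knocked out; cells exposed to compound for 60 hours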
[20] = growth suppression of PTEN-null colon cells, dose response, cell-based, HCT116 PTEN knockout (AID 1047); type: functional;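 further: HCT116 colon tumor cells with PTEN knocked out; cells exposed to compound for 60 hours before readout; potency for loss of cell viability measured by luminescence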
Cytochrome P450 2D6 = Cytochrome P450 2D6 (Homo sapiens, UniProt P10635);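 further: CYP2D6 member of a cytochrome P450 panel assay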
Chain of Cytochrome P450 2D6 (P10635 whole entry): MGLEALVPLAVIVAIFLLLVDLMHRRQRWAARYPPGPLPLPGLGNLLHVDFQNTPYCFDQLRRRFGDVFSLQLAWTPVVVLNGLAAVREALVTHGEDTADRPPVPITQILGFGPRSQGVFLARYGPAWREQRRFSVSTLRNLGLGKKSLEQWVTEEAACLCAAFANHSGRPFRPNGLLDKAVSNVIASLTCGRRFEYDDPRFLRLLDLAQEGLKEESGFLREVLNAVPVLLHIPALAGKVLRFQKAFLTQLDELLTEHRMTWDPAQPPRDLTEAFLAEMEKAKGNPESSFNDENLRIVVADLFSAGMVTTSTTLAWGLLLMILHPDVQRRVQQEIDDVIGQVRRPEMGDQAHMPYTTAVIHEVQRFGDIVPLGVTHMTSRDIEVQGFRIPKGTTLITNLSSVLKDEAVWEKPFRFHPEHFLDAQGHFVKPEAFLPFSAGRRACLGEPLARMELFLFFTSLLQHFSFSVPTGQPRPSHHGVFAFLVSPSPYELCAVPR

T5 sequence (Q00975 whole entry): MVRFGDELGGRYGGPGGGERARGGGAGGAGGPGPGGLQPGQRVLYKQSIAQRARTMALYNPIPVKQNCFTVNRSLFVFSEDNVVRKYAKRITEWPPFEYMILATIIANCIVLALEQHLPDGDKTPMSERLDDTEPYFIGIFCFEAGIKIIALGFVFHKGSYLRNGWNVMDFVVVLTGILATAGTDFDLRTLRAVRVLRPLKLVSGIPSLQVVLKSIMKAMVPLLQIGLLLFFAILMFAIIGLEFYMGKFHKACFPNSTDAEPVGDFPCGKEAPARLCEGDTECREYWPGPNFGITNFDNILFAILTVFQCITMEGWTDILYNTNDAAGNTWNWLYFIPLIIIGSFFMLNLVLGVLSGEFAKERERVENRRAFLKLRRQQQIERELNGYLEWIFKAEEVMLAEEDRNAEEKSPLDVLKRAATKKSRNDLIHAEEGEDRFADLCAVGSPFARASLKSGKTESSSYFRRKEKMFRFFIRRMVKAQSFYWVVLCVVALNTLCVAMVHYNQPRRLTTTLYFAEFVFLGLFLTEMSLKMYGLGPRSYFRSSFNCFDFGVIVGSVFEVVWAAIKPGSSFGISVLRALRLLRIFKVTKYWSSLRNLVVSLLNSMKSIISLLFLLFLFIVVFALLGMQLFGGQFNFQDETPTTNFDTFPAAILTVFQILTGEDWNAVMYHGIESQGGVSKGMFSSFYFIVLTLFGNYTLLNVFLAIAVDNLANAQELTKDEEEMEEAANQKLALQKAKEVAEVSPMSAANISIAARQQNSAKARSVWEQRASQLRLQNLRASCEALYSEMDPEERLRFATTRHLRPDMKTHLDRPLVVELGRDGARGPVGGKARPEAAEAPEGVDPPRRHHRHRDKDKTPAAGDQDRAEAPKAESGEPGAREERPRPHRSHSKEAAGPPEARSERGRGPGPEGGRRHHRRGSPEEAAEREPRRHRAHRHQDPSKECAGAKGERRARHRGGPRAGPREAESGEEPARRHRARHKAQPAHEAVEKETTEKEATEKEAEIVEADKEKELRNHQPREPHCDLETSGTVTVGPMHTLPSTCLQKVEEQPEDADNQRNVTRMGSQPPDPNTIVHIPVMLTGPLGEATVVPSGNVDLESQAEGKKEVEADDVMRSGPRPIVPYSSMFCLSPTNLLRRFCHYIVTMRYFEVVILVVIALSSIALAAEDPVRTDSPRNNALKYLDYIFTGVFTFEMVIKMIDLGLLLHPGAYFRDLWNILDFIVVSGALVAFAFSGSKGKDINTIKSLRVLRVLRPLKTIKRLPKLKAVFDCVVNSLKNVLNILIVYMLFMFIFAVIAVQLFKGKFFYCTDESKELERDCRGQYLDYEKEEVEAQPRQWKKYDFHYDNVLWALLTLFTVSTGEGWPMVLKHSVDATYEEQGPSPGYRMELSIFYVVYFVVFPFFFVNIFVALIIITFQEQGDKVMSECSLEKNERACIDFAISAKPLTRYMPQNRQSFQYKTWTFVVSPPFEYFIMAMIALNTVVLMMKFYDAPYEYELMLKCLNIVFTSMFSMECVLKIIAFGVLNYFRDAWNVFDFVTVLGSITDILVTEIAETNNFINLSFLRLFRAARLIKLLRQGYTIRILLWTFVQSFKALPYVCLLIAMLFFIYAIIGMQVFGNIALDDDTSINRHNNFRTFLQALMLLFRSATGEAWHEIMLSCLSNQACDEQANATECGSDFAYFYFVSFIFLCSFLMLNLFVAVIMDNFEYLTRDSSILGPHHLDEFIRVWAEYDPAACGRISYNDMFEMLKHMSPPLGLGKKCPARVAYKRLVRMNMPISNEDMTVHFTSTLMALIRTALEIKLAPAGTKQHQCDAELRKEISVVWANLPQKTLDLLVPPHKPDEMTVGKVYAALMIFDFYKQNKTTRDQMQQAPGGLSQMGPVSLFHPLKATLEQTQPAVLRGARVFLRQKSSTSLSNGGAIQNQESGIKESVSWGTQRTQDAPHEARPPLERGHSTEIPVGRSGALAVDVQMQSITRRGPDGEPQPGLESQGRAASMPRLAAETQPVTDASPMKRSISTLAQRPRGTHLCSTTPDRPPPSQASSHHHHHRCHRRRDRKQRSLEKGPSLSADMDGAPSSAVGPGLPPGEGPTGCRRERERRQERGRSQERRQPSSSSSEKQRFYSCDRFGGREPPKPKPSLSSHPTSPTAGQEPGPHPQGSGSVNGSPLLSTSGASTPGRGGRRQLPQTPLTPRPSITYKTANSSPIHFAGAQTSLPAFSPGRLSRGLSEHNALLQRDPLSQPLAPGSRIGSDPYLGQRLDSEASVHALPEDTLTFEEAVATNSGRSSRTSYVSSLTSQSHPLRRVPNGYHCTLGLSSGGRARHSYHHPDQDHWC
T5 sequence (Q02410 whole entry): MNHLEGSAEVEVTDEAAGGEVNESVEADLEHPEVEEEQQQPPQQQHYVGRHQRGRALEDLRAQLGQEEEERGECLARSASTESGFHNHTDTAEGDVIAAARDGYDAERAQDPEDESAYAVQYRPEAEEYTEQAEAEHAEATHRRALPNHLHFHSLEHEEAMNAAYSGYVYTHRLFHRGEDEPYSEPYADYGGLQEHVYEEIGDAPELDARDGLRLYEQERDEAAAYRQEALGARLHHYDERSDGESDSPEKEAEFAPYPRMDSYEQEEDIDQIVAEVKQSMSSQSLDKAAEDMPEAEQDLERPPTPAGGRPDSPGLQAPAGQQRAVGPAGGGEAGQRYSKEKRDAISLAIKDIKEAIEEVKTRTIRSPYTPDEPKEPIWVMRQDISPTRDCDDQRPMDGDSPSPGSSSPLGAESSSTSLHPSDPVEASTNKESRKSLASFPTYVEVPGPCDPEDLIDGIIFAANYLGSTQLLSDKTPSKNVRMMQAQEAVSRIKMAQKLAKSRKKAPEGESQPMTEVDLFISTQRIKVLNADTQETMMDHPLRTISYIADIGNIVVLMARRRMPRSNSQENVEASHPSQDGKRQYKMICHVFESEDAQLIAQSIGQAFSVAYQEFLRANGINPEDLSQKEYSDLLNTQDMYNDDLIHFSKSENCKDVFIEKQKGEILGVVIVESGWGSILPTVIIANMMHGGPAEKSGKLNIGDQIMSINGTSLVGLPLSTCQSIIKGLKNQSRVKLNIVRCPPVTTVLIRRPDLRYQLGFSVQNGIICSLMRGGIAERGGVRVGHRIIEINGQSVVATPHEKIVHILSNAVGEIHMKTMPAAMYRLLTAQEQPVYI
Chain of Luciferin 4-monooxygenase (P08659 whole entry): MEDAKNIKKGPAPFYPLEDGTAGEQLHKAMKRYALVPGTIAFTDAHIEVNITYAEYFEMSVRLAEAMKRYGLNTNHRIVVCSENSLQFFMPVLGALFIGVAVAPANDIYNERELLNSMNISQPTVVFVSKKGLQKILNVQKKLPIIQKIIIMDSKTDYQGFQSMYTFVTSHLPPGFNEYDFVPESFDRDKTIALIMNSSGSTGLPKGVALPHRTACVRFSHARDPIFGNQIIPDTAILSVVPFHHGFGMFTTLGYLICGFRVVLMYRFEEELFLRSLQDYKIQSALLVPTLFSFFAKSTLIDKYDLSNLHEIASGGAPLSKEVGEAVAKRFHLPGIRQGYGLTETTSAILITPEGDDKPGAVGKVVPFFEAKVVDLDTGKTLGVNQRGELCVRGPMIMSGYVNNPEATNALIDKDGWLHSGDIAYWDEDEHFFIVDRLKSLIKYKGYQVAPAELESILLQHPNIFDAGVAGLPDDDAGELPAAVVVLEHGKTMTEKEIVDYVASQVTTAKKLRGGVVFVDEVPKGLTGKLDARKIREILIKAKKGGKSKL

- AC50 [1]: 1.78 µM (active)
SMILES: N#Cc1cc2c(nc1SC1CC(=O)N(c3ccccc3)C1=O)CCC2 (stereo not given)

- IC50 [2]: 9.39 µM (active)
- IC50 [3]: 8.43 µM (active)
SMILES: Cc1cccc(N2CCN(C(=O)CCCn3c(=O)[nH]c4ccsc4c3=O)CC2C)c1 (stereo not given)

SMILES: CCc1ccc(CN(C)CCc2ccccn2)cc1
- EC50 [4]: > 30 µM (not active)
- EC50 [5]: < 100 nM (active)
- EC50 (cells): 35 nM (active)

SMILES: COc1ccc(S(=O)(=O)N2CCCCC2)cc1NC(=O)c1ccc([N+](=O)[O-])o1
- EC50 [4]: 11.9 µM (active)
- AC50 [1]: 9.14 µM (active)
- EC50 [5]: 4550 nM (active)

SMILES: CCn1c2ccccc2c2cc(CNCCCN3CCOCC3)ccc21
- EC50 [4]: > 60 µM (not active)
- EC50 [5]: < 100 nM (active)
- EC50 (cells): 13 nM (active)

- EC50 [6]: 0.0173 µM (active)
SMILES: CN(C)C(CN=C(S)Nc1ccc(F)cc1)c1cccnc1 (stereo not given)

SMILES: O=C(NC(c1ccc(Cl)cc1)c1cc(Cl)c2cccnc2c1O)c1cccnc1 (stereo not given)
- EC50 [4]: 6.88 µM (active)
- EC50 [7]: 660 nM (active)
- EC50 [8]: 730 nM (active)
- EC50 [5]: 253 nM (active)
- EC50 [9]: 8.56 µM (inconclusive)
- EC50 [10]: > 112 µM (not active)
- EC50 (Streptococcus): 1.36 µM (active)
- EC50 [11]: > 112 µM (not active)
- AC50 [12]: 24.2 µM (active)
- AC50 (INS1): 951 nM (active)
- AC50 (HEK293): 2 µM (active)

- IC50 [2]: 8.33 µM (active)
- IC50 [3]: 4.01 µM (active)
SMILES: O=c1c2ccccc2[nH]c(=S)n1CCN1CCCC1

SMILES: CN1CCC(CNC(=O)Nc2ccccc2)(c2ccccc2)CC1
- EC50 [6]: 1.33 µM (active)

SMILES: COc1ccc2nc(N(CCN(C)C)C(=O)c3ccc4c(c3)OCCO4)sc2c1
- EC50 [4]: > 60 µM (not active)
- EC50 [5]: < 100 nM (active)
- EC50 (cells): 95 nM (active)

- IC50 [2]: 0.158 µM (active)
- IC50 [3]: 0.0829 µM (active)
SMILES: N#Cc1c(N)nc(SCc2ccccn2)c(C#N)c1-c1cccs1

- EC50 [13]: 1.06 µM (active)
- EC50 [6]: 2.99 µM (active)
- EC50 [14]: > 195 µM (not active)
SMILES: CCc1ccc(C(CNc2nc(C(F)(F)F)nc3ccccc23)N(C)C)cc1 (stereo not given)

- EC50 [13]: 1.68 µM (active)
- EC50 [6]: 10.6 µM (active)
SMILES: CCN=C(S)N1CCC(C(O)(c2ccccc2)c2ccccc2)CC1

SMILES: COC1CCC(OC2CC(C3(C)CCC4(CC(O)C(C)C(C(C)/C=C(\C)C(=O)C(C)CC(C)C(=O)O)O4)O3)OC3(OC(C4OC(O)(CO)C(C)CC4C)CC3C)C2C)OC1C (stereo not given)
- AC50 [12]: 5.72 µM (active)

SMILES: COc1cccc(/N=c2\oc3ccc(OC)cc3cc2-c2nc3ccccc3[nH]2)c1
- IC50 [15]: 41 µM (active)
- IC50 [16]: > 67.5 µM (inactive)
- IC50 [17]: 7.91 µM (active)
- IC50 [18]: > 50 µM (inactive)

SMILES: COc1cccc(Nc2nc(NCC3CCCO3)c3ccccc3n2)c1 (stereo not given)
- EC50 [4]: > 30 µM (not active)
- EC50 [19]: 7.05 µM (active)
- EC50 [5]: < 100 nM (active)
- EC50 (cells): 443 nM (active)
- EC50 [20]: 7.57 µM (active)

- IC50 [2]: 0.0214 µM (active)
- AC50 (Cytochrome P450 2D6): 10 µM (inconclusive)
- IC50 [3]: 1.12 µM (active)
SMILES: Cc1nccn1C[C@@H]1CCc2c(c3ccccc3n2C)C1=O [(S)-ONDANSETRON]
